# Results published in patent US9028856B2, “Synergistic pesticide compositions” (priority 2008, dated 2015).
# Columns and labels:
# [1] = tested on: Argentine ant, Linepithema humile; experiment: Knockdown/mortality of ant workers under continuous exposure on treated glazed tile; conditions: for toxicity / efficacy of the substance alone (summary in words): Argentine ant, treated glazed tile; for Average % Knockdown & Mortality after 18 hr / Average % Knockdown & Mortality after 2 hr / Average % Knockdown & Mortality after 1 hr / Average % Knockdown & Mortality after 30 min / Average % Knockdown & Mortality after 24 hr / Average % Knockdown & Mortality after 4 hr / Average % Knockdown & Mortality after 5 hr / Average % Knockdown & Mortality after 6 hr / Average % Knockdown & Mortality after 3 hr / Average % Knockdown & Mortality after 7 hr / Average % Knockdown & Mortality after 15 min: glazed tile
# Procedure: (§1) Solutions of imidacloprid at 0.5% AI were prepared with and without methyl oleate @0.1, 1.0 and 5.0% in acetone. Treatments were applied using a micropipette to dispense 1 ml of test solution evenly on a 6″×6″ glazed tile. Actual coverage was about 5″×5″ (or 161 cm^2) for easy handling. Treatments were allowed to dry overnight. Ten Argentine ant workers were placed within a fluon or talc-coated PVC ring (φ7.6 cm×H 5.1 cm) under continuous exposure. A small vial filled with a cotton ball soaked in water was added as a drinking source after 3 hours. Treatments were replicated a minimum of three times. Evaluations for ant knockdown/mortality were made at various intervals and at 24 hours after exposure.
# as §1, with “MATERIALS AND METHODS: Solutions” for “Solutions”, “linoleate” for “oleate”
# as §1, with “MATERIALS AND METHODS: Solutions of” for “Solutions of”, “without methyl palmitate @0.1, 1.0” for “without methyl oleate @0.1, 1.0”, “after exposure. […]” for “after exposure.”
# [2] = tested on: bait averse/resistant German cockroach (T-164 strain); experiment: Knockdown/mortality of male cockroaches under continuous exposure on treated glazed tile; type: in vivo, Blattella germanica; set-up: Average % Knockdown & Mortality after 5 hr / Average % Knockdown & Mortality after 30 min: concentration or dose not given beside the values; conditions: for toxicity / efficacy of the substance alone (summary in words): German cockroach T-164, treated glazed tile; for Average % Knockdown & Mortality after 45 min: Table 24, imidacloprid/dibutyl sebacate (DBS) in acetone
# [3] = Table 16 (Ex. 13), continuous exposure, listed as Butylated hydroxytoluene (BHT) (1%)
# [4] = Table 16 (Ex. 13), continuous exposure, listed as Butylated hydroxytoluene (BHT) (5%)
# [5] = Table 14 (Ex. 11), continuous exposure
# [6] = Table 15 (Ex. 12), glazed tile, continuous exposure
# [7] = Table 15 (Ex. 12), glazed tile, continuous exposure, listed as Butylated hydroxyanisole (BHA) (1%)
# [8] = Table 15 (Ex. 12), glazed tile, continuous exposure, listed as Butylated hydroxyanisole (BHA) (5%)
# [9] = 2 hr, Table 25, imidacloprid/dibutyl sebacate (DBS) in acetone
# [10] = 4 hr, Table 25, imidacloprid/dibutyl sebacate (DBS) in acetone
# [11] = 2 hr, Table 22, imidacloprid/tritylchloride in acetone, continuous exposure
# [12] = Table 22, imidacloprid/tritylchloride in acetone, continuous exposure
# [13] = 3 hr, Table 23, imidacloprid/tritylchloride in acetone, glazed tile, T-164 strain
# [14] = Table 19 (Ex. 16), continuous exposure
# [15] = Table 19 (Ex. 16), continuous exposure, listed as TBHQ (0.1%)
# [16] = Table 19 (Ex. 16), continuous exposure, listed as TBHQ (1%)
# [17] = Table 19 (Ex. 16), continuous exposure, listed as TBHQ (5%)
# [18] = Table 18 (Ex. 15), glazed tile, continuous exposure, listed as TBHQ (1%)
# [19] = Table 18 (Ex. 15), glazed tile, continuous exposure, listed as TBHQ (5%)
# [20] = Table 7 (Ex. 4), continuous exposure, listed as Oleic acid (0.1%)
# [21] = Table 7 (Ex. 4), continuous exposure, listed as Oleic acid (5%)
# [22] = Table 8 (Ex. 5), continuous exposure, listed as Methyl Oleate (1%)
# [23] = Table 8 (Ex. 5), continuous exposure, listed as Methyl Oleate (5%)
structure (smiles),measurement,setting,value
"Cc1cc(C(C)(C)C)c(O)c(C(C)(C)C)c1 [BHT, butylated hydroxytoluene]",toxicity / efficacy of the substance alone (summary in words),[1],toxic
same,Average % Knockdown & Mortality after 18 hr,"[1]; Table 16 (Ex. 13), continuous exposure, listed as Butylated hydroxytoluene (BHT) (0.1%)",7%
same,Average % Knockdown & Mortality after 2 hr,[1]; [3],3%
same,Average % Knockdown & Mortality after 18 hr,[1]; [3],3%
same,Average % Knockdown & Mortality after 2 hr,[1]; [4],7%
same,Average % Knockdown & Mortality after 18 hr,[1]; [4],79%
same,toxicity / efficacy of the substance alone (summary in words),[2],not toxic
same,Average % Knockdown & Mortality after 5 hr,"[2]; Table 17 (Ex. 14), glazed tile, continuous exposure",0%
"COc1ccc(O)c(C(C)(C)C)c1 [BHA, butylated hydroxyanisole]",toxicity / efficacy of the substance alone (summary in words),[1],delayed toxicity
same,Average % Knockdown & Mortality after 1 hr,[1]; [5],0%
same,Average % Knockdown & Mortality after 2 hr,[1]; [5],0%
same,Average % Knockdown & Mortality after 30 min,"[1]; Table 14 (Ex. 11), continuous exposure, UTC 63% at 24 hr",0%
same,Average % Knockdown & Mortality after 24 hr,"[1]; Table 14 (Ex. 11), continuous exposure, UTC 63% at 24 hr, listed as Butylated hydroxyanisole (BHA) (0.1%)",37%
same,Average % Knockdown & Mortality after 24 hr,"[1]; Table 14 (Ex. 11), continuous exposure, UTC 63% at 24 hr, listed as Butylated hydroxyanisole (BHA) (1%)",40%
same,Average % Knockdown & Mortality after 24 hr,"[1]; Table 14 (Ex. 11), continuous exposure, UTC 63% at 24 hr, listed as Butylated hydroxyanisole (BHA) (5%)",74%
same,Average % Knockdown & Mortality after 4 hr,"[1]; Table 14 (Ex. 11), continuous exposure, listed as Butylated hydroxyanisole (BHA) (0.1%)",10%
same,Average % Knockdown & Mortality after 4 hr,"[1]; Table 14 (Ex. 11), continuous exposure, listed as Butylated hydroxyanisole (BHA) (1%)",3%
same,Average % Knockdown & Mortality after 4 hr,"[1]; Table 14 (Ex. 11), continuous exposure, listed as Butylated hydroxyanisole (BHA) (5%)",19%
same,toxicity / efficacy of the substance alone (summary in words),[2],"at the high rate (5%) was toxic to the German cockroach, but not at its lower rates (1.0 and 0.1%)"
same,Average % Knockdown & Mortality after 30 min,[2]; [6],0%
same,Average % Knockdown & Mortality after 1 hr,[2]; [6],0%
same,Average % Knockdown & Mortality after 24 hr,"[2]; Table 15 (Ex. 12), glazed tile, continuous exposure, listed as Butylated hydroxyanisole (BHA) (0.1%)",20%
same,Average % Knockdown & Mortality after 2 hr,[2]; [7],0%
same,Average % Knockdown & Mortality after 4 hr,[2]; [7],0%
same,Average % Knockdown & Mortality after 24 hr,[2]; [7],0%
same,Average % Knockdown & Mortality after 2 hr,[2]; [8],20%
same,Average % Knockdown & Mortality after 4 hr,[2]; [8],20%
same,Average % Knockdown & Mortality after 24 hr,[2]; [8],73%
CCCCOC(=O)CCCCCCCCC(=O)OCCCC [DBS (5%)],Average % Knockdown & Mortality after 2 hr,[1]; [9],100%
same,Average % Knockdown & Mortality after 4 hr,[1]; [10],100%
same,Average % Knockdown & Mortality after 45 min,"[2]; glazed tile, T-164 strain",0%
ClC(c1ccccc1)(c1ccccc1)c1ccccc1 [Tritylchloride (1%)],Average % Knockdown & Mortality after 2 hr,[1]; [11],0%
same,Average % Knockdown & Mortality after 5 hr,[1]; [12],0%
same,Average % Knockdown & Mortality after 3 hr,[2]; [13],0%
"CCCCOC(=O)CCCCCCCCC(=O)OCCCC [DBS, dibutyl sebacate]",toxicity / efficacy of the substance alone (summary in words),[1],"toxic to the Argentine ants, and the lower rates (0.1 & 1.0%) of DBS showed delayed toxicity"
same,toxicity / efficacy of the substance alone (summary in words),[2],"not toxic to German cockroaches, except at its highest rate (5%)"
"CC(C)(C)c1cc(O)ccc1O [TBHQ, tertiary butyl dihydroxyquinone]",toxicity / efficacy of the substance alone (summary in words),[1],toxic effect
same,Average % Knockdown & Mortality after 30 min,[1]; [14],0%
same,Average % Knockdown & Mortality after 1 hr,[1]; [14],0%
same,Average % Knockdown & Mortality after 6 hr,[1]; [15],7%
same,Average % Knockdown & Mortality after 24 hr,[1]; [15],11%
same,Average % Knockdown & Mortality after 4 hr,[1]; [16],0%
same,Average % Knockdown & Mortality after 6 hr,[1]; [16],10%
same,Average % Knockdown & Mortality after 4 hr,[1]; [17],10%
same,Average % Knockdown & Mortality after 6 hr,[1]; [17],23%
same,Average % Knockdown & Mortality after 24 hr,[1]; [17],100%
same,toxicity / efficacy of the substance alone (summary in words),[2],at the higher rates (1 & 5%) showed delayed toxic effect
same,Average % Knockdown & Mortality after 30 min,"[2]; Table 18 (Ex. 15), glazed tile, continuous exposure",0%
same,Average % Knockdown & Mortality after 24 hr,"[2]; Table 18 (Ex. 15), glazed tile, continuous exposure, listed as TBHQ (0.1%)",7%
same,Average % Knockdown & Mortality after 1 hr,[2]; [18],0%
same,Average % Knockdown & Mortality after 2 hr,[2]; [18],0%
same,Average % Knockdown & Mortality after 4 hr,[2]; [18],0%
same,Average % Knockdown & Mortality after 24 hr,[2]; [18],40%
same,Average % Knockdown & Mortality after 1 hr,[2]; [19],7%
same,Average % Knockdown & Mortality after 2 hr,[2]; [19],7%
same,Average % Knockdown & Mortality after 4 hr,[2]; [19],7%
same,Average % Knockdown & Mortality after 24 hr,[2]; [19],47%
ClC(c1ccccc1)(c1ccccc1)c1ccccc1 [Tritylchloride (0.1%)],Average % Knockdown & Mortality after 2 hr,[1]; [11],0%
same,Average % Knockdown & Mortality after 5 hr,[1]; [12],0%
same,Average % Knockdown & Mortality after 3 hr,[2]; [13],0%
CCCCOC(=O)CCCCCCCCC(=O)OCCCC [DBS (1%)],Average % Knockdown & Mortality after 2 hr,[1]; [9],0%
same,Average % Knockdown & Mortality after 4 hr,[1]; [10],77%
same,Average % Knockdown & Mortality after 45 min,"[2]; glazed tile, T-164 strain",0%
O=C(O)CCc1ccccc1 [benzenepropanoic acid],toxicity / efficacy of the substance alone (summary in words),[1],not toxic
same,Average % Knockdown & Mortality after 3 hr,"[1]; Table 4 (Ex. 1), continuous exposure",0%
same,Average % Knockdown & Mortality after 7 hr,"[1]; Table 4 (Ex. 1), continuous exposure, listed as Benzenepropanoic acid(1%)",0%
same,Average % Knockdown & Mortality after 7 hr,"[1]; Table 4 (Ex. 1), continuous exposure, listed as Benzenepropanoic acid(5%)",7%
same,toxicity / efficacy of the substance alone (summary in words),[2],slightly to not toxic
same,Average % Knockdown & Mortality after 15 min,"[2]; Table 5 (Ex. 2), glazed tile, continuous exposure",0%
CCCCCCCC/C=C\CCCCCCCC(=O)O [Oleic acid],toxicity / efficacy of the substance alone (summary in words),[1],"at the high rates (1 & 5%) was toxic to the Argentine ants, but not at the low rate (0.1%)"
same,Average % Knockdown & Mortality after 3 hr,[1]; [20],0%
same,Average % Knockdown & Mortality after 7 hr,[1]; [20],0%
same,Average % Knockdown & Mortality after 3 hr,"[1]; Table 7 (Ex. 4), continuous exposure, listed as Oleic acid (1%)",82%
same,Average % Knockdown & Mortality after 3 hr,[1]; [21],100%
same,Average % Knockdown & Mortality after 7 hr,[1]; [21],100%
same,toxicity / efficacy of the substance alone (summary in words),[2],"toxic to German cockroaches at the high rate (5%), but not toxic at the two low rates"
same,Average % Knockdown & Mortality after 15 min,"[2]; Table 6 (Ex. 3), glazed tile, continuous exposure",0%
"CCCCCCCC/C=C\CCCCCCCC(=O)OC [Methyl oleate, methyl oleate]",toxicity / efficacy of the substance alone (summary in words),[1],toxic
same,Average % Knockdown & Mortality after 4 hr,"[1]; Table 8 (Ex. 5), continuous exposure, listed as Methyl Oleate (0.1%)",13%
same,Average % Knockdown & Mortality after 15 min,[1]; [22],0%
same,Average % Knockdown & Mortality after 4 hr,[1]; [22],55%
same,Average % Knockdown & Mortality after 15 min,[1]; [23],3%
same,Average % Knockdown & Mortality after 4 hr,[1]; [23],100%
same,toxicity / efficacy of the substance alone (summary in words),[2],at the higher rates (1 & 5%) showed delayed toxic effect
same,Average % Knockdown & Mortality after 15 min,"[2]; Table 9 (Ex. 6), glazed tile, continuous exposure, listed as Methyl Oleate (1%)",0%
same,Average % Knockdown & Mortality after 15 min,"[2]; Table 9 (Ex. 6), glazed tile, continuous exposure, listed as Methyl Oleate (5%)",7%
"c1ccc(Cc2ccccc2)cc1 [Diphenyl methane, diphenyl methane]",toxicity / efficacy of the substance alone (summary in words),[1],not toxic
same,Average % Knockdown & Mortality after 2 hr,"[1]; Table 20 (Ex. 17), continuous exposure",0%
same,Average % Knockdown & Mortality after 4 hr,"[1]; Table 20 (Ex. 17), continuous exposure, listed as Diphenyl methane (DPM) (0.1%)",13%
same,Average % Knockdown & Mortality after 4 hr,"[1]; Table 20 (Ex. 17), continuous exposure, listed as Diphenyl methane (DPM) (5%)",0%
same,toxicity / efficacy of the substance alone (summary in words),[2],not toxic
same,Average % Knockdown & Mortality after 3 hr,"[2]; Table 21 (Ex. 18), glazed tile, continuous exposure",0%
